Assay results reported in patent US12410164B2, “Heterocyclic compounds and medical use thereof” (FONDAZIONE TELETHON, priority 2018, dated 2025).

Target: F508del-CFTR (Homo sapiens, UniProt P13569, DEL508-508)
Experiment: Analysis of F508del-CFTR localization by immunofluorescence in CFBE41o− cells
Format: cell-based
Set-up: expressed in transfected cells; host or cells: CFBE41o- cells with expression of F508del-CFTR and HS-YFP (generated as in Sondo et al. 2011)
Details: compound 10 μM plus VX-809 1 μM, 24 hr
Description: CFBE41o− cells were seeded in a 12-well μ-chamber (81201, Ibidi) at a density of 25.000 cells per well and treated with compounds for 24 hr. Cells were then rinsed with PBS and fixed by adding 100 μl per well of 10% neutral buffered formalin for 5 minutes at room temperature. After 3 washes with 300 μl of PBS, cells were permeabilized with PBS-Triton X-100 0.3% for 5 min, blocked with PBS-BSA 1% for 2 hr, and incubated overnight at 4° C. with 100 μl of primary antibody diluted in blocking solution. The CFTR antibody was ab570 mouse IgG1 (University of North Carolina at Chapel Hill, and Cystic Fibrosis Foundation Therapeutics, see Cui L, et al. J. Mol Biol 2007, 365, 981-994) diluted at 1:250. Following incubation with primary antibody, cells were rinsed three times with PBS and incubated with 100 μl of a solution of secondary goat anti-mouse Alexa Fluor-546 antibodies (Invitrogen A-11030) diluted in PBS-BSA 1% for 1 hour in the dark. After three further washes in PBS, cells were covered with mounting medium and coverslip, and then analysed using a laser-scanning confocal microscope SPE (Leica Microsystems).
As a second type of experiment, the localization of F508del-CFTR protein was evaluated by immunofluorescence. Cells were treated with compounds, then fixed and immunostained with antibodies against CFTR. Images were taken with a confocal microscope.

Chain of F508del-CFTR (P13569 with tags, fused parts or gaps DEL508-508): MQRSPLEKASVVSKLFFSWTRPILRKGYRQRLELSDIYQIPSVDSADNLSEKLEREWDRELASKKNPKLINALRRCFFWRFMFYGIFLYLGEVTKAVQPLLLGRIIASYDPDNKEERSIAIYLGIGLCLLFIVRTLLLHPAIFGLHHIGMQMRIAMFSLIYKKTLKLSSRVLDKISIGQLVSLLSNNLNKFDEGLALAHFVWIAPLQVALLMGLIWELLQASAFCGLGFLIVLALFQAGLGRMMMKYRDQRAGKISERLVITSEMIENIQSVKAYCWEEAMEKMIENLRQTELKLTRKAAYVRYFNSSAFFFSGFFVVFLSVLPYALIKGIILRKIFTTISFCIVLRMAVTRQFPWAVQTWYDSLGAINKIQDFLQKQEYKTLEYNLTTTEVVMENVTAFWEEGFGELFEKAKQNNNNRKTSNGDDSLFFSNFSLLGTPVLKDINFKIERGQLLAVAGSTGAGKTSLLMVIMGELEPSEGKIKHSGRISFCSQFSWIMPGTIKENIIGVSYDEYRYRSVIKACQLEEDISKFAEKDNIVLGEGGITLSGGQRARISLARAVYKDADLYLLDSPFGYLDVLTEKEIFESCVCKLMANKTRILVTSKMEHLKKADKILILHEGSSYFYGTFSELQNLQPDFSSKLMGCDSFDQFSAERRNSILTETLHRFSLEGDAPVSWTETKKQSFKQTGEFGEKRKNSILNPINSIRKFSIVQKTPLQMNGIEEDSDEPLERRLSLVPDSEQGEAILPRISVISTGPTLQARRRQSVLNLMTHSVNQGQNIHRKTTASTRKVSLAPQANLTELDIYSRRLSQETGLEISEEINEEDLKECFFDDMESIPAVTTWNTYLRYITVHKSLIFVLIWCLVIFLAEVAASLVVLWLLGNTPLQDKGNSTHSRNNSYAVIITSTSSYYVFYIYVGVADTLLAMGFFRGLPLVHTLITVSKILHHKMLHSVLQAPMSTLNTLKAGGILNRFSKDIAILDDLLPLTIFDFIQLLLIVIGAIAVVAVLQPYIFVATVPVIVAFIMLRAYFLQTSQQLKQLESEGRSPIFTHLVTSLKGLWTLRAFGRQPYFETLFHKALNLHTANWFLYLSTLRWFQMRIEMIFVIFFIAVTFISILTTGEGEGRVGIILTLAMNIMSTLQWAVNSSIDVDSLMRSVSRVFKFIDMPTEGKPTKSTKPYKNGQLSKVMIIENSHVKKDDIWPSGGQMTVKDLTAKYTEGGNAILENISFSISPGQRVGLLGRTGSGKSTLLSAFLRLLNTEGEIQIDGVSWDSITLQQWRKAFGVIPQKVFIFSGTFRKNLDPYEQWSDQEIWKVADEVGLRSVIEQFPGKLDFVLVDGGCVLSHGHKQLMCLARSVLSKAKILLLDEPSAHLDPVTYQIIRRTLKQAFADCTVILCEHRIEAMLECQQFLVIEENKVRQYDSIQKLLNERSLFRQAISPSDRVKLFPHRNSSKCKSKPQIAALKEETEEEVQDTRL

CCOC(=O)c1c(Br)c2c(n1Cc1cccc(C)c1)-c1[nH]c(=O)c(S(=O)(=O)c3ccccc3)cc1CC2 [PP028, Ethyl 3-bromo 1-(3-methylbenzyl)-8-oxo-7-(phenylsulfonyl)-4,5,8,9-tetrahydro-1H-pyrrolo[3,2-h]quinoline-2-carboxylate]
F508del-CFTR localization: cause appearance of F508del-CFTR at the cell periphery
